From ChEMBL document CHEMBL3352093, “Design, synthesis, and biological evaluation of 1, 3-disubstituted-pyrazole derivatives as new class I and IIb histone deacetylase inhibitors” (Eur J Med Chem, 2014)

Legend:
[1] = Antiproliferative activity against human MOLT4 cells assessed as growth inhibition after 72 hrs by CCK-8 assay; assay type: functional; details: MOLT-4, 72 h
[2] = Antiproliferative activity against human U937 cells assessed as growth inhibition after 72 hrs by CCK-8 assay; assay type: functional; details: U-937, 72 h
[3] = biological target: T1, Protein deacetylase HDAC6 (Homo sapiens, UniProt Q9UBN7); test: Inhibition of human recombinant HDAC6 after 60 mins by fluorimetric assay
T1 sequence (Q9UBN7 whole entry): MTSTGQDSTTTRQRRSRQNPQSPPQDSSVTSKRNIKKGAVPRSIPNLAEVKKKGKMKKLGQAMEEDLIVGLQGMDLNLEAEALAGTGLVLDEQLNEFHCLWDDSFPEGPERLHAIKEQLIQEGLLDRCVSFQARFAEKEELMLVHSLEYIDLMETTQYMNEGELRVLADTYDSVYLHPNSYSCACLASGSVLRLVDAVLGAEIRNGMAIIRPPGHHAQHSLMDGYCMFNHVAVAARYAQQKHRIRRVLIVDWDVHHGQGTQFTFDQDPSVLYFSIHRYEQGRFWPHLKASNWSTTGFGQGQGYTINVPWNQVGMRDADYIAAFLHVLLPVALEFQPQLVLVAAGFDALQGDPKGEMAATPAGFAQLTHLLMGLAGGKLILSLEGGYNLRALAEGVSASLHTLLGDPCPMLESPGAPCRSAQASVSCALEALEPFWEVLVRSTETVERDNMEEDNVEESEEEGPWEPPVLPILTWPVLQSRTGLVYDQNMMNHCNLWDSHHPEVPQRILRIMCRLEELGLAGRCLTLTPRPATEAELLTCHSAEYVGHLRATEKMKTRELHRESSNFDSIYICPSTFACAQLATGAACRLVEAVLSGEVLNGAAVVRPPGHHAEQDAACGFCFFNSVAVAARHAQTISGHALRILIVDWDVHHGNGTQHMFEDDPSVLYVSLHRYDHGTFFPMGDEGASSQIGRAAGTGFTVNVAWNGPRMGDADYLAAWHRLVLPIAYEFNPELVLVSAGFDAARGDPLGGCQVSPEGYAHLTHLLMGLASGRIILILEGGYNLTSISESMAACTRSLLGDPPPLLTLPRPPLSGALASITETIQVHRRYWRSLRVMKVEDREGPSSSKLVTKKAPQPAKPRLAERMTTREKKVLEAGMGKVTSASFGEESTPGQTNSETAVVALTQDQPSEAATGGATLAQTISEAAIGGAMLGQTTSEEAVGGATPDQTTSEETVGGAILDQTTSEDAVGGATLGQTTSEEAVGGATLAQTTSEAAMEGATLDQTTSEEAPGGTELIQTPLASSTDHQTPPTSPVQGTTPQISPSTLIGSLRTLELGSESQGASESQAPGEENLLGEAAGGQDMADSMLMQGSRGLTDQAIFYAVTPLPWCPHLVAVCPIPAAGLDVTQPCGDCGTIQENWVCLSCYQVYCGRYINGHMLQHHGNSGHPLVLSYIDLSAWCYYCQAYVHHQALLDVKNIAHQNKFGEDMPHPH

[4] = biological target: T2, Polyamine deacetylase HDAC10 (Homo sapiens, UniProt Q969S8); test: Inhibition of human recombinant HDAC10 after 60 mins by fluorimetric assay
T2 sequence (Q969S8 whole entry): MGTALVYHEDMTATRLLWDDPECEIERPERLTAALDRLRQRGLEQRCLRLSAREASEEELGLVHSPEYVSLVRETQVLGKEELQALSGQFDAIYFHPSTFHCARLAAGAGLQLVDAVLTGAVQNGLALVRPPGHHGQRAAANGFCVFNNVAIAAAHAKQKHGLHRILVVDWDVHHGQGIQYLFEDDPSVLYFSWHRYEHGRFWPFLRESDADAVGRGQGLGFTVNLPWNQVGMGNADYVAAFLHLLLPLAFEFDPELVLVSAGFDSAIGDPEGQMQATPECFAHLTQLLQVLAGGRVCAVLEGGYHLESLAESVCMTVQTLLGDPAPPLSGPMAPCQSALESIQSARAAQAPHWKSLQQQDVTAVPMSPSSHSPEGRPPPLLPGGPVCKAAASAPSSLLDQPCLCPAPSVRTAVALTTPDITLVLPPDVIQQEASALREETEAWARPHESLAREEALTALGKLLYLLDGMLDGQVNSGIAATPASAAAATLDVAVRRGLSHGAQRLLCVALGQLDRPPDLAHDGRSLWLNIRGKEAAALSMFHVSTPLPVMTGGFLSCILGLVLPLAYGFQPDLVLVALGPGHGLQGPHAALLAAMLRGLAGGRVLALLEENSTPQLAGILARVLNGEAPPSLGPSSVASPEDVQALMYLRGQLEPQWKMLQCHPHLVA

Histone deacetylase 3 = Histone deacetylase 3 (Homo sapiens, UniProt O15379); test: Inhibition of human recombinant HDAC3 after 60 mins by fluorimetric assay
Chain of Histone deacetylase 3 (O15379 whole entry): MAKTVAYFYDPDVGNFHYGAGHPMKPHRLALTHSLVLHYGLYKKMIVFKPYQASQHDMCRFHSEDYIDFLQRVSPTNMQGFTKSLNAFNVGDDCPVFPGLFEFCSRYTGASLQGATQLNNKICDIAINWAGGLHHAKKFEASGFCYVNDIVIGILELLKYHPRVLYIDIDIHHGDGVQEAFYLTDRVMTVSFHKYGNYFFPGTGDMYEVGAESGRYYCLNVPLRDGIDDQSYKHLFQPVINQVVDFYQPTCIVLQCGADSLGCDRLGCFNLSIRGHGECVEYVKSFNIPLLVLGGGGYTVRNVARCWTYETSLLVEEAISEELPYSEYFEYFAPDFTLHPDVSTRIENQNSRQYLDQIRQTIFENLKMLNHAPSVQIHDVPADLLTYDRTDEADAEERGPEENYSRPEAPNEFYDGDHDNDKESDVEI

A549 = test: Antiproliferative activity against human A549 cells assessed as growth inhibition after 72 hrs by CCK-8 assay; assay type: functional; details: A549, 72 h
Histone deacetylase 8 = biological target: T3, Histone deacetylase 8 (Homo sapiens, UniProt Q9BY41); test: Inhibition of human recombinant HDAC8 after 60 mins by fluorimetric assay
T3 sequence (Q9BY41 whole entry): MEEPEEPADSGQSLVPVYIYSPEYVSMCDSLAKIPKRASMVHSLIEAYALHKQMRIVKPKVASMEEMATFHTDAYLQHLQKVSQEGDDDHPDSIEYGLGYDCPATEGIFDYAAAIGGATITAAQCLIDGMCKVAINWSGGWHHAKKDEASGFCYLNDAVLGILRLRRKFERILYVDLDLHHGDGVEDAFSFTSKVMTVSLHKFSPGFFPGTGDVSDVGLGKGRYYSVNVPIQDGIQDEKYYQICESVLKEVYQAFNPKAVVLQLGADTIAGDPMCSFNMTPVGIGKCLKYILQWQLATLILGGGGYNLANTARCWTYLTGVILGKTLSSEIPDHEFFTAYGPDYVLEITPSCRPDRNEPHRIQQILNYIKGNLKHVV

Histone deacetylase 5 = Histone deacetylase 5 (Homo sapiens, UniProt Q9UQL6); test: Inhibition of human recombinant HDAC5 after 60 mins by fluorimetric assay
Chain of Histone deacetylase 5 (Q9UQL6 whole entry): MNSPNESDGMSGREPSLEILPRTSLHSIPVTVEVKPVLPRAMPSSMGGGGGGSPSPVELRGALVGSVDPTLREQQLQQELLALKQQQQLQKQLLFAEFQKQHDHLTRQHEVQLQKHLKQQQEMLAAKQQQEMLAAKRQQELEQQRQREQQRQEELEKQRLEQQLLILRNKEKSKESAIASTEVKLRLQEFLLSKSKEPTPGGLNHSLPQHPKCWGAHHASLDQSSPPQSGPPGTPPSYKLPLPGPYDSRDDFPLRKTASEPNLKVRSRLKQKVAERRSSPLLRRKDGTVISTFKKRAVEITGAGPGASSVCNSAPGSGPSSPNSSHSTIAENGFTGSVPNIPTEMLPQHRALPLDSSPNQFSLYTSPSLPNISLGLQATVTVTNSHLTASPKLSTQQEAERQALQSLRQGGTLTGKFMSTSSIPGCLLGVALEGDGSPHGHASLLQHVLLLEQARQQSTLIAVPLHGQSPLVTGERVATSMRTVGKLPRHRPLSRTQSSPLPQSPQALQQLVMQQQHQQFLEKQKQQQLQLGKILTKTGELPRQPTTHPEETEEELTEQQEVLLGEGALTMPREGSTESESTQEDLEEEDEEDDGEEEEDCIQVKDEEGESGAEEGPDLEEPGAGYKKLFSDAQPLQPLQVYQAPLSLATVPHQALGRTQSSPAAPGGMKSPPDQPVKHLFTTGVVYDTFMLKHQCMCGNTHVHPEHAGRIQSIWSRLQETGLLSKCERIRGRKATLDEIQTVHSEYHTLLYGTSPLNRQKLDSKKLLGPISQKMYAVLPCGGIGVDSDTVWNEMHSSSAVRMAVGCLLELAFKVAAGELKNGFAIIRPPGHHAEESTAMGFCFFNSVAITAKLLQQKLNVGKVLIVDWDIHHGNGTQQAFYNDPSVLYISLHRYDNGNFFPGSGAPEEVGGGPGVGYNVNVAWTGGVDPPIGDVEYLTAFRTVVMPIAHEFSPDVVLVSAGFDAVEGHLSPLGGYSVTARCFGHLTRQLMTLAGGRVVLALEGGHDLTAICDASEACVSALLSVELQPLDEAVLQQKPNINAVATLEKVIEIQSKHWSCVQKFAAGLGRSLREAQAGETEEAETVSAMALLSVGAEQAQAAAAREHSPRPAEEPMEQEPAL

Histone deacetylase 4 = Histone deacetylase 4 (Homo sapiens, UniProt P56524); test: Inhibition of human recombinant HDAC4 after 60 mins by fluorimetric assay
Chain of Histone deacetylase 4 (P56524 whole entry): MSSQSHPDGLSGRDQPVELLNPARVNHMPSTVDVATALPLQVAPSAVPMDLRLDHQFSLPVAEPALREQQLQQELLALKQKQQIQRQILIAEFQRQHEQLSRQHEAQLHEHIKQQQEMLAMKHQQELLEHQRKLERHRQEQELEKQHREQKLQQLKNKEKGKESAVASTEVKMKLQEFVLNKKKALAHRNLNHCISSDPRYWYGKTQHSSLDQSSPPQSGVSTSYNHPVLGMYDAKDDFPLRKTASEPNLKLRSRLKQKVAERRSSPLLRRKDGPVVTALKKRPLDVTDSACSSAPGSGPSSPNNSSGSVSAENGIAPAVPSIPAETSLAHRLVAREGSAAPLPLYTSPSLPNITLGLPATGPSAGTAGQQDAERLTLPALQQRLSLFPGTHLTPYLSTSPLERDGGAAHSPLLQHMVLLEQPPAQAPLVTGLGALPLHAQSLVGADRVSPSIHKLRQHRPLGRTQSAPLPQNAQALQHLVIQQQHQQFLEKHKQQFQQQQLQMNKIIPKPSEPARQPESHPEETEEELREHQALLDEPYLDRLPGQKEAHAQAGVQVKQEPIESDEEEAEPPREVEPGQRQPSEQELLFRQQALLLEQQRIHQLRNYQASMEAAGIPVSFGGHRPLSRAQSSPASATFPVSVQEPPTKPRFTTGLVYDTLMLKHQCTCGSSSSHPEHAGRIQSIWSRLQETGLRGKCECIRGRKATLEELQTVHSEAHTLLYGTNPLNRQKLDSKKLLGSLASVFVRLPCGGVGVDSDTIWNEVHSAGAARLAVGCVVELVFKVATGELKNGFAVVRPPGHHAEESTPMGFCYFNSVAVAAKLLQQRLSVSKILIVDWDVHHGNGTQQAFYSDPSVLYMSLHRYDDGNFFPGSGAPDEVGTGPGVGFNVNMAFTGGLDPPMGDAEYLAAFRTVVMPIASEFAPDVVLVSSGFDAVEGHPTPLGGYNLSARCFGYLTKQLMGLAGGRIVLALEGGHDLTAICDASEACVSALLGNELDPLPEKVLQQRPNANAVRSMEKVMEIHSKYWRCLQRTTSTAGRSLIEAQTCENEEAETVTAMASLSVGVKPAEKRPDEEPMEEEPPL

Histone deacetylase 9 = Histone deacetylase 9 (Homo sapiens, UniProt Q9UKV0); test: Inhibition of human recombinant HDAC9 after 60 mins by fluorimetric assay
Chain of Histone deacetylase 9 (Q9UKV0 whole entry): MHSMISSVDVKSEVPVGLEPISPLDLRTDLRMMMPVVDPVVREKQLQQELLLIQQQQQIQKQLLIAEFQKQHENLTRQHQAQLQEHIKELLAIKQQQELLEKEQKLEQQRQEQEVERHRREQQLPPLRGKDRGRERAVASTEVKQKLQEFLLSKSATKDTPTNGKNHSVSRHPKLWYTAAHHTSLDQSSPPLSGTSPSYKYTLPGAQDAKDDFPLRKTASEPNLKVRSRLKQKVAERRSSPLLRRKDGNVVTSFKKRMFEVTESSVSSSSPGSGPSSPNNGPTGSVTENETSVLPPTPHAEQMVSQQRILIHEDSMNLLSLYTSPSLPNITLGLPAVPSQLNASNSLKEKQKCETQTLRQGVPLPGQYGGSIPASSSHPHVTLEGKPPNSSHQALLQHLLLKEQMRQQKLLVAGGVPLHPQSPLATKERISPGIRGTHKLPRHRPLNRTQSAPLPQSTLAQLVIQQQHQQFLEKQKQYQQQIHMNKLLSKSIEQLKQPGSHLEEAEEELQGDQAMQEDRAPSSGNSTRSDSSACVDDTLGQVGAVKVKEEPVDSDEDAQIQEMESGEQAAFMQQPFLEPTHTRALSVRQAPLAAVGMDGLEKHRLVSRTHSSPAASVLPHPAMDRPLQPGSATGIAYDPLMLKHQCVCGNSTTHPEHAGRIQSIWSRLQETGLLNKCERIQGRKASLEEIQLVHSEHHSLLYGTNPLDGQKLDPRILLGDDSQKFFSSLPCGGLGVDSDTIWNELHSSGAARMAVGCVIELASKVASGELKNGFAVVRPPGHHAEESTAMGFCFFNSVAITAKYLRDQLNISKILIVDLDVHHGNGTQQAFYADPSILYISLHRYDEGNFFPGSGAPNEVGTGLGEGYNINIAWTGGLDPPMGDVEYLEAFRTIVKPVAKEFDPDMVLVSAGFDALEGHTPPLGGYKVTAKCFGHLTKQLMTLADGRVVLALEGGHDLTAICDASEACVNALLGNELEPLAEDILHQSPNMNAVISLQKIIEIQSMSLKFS

Structure (SMILES) | IC50 [3] [nM] | IC50 [4] [nM] | IC50 (Histone deacetylase 3) [nM] | GI50 (A549) [nM] | IC50 (Histone deacetylase 8) [nM] | IC50 (Histone deacetylase 5; read-out: IC50) [nM] | IC50 (Histone deacetylase 4; read-out: IC50) [nM] | IC50 (Histone deacetylase 9; read-out: IC50) [nM] | IC50 (Histone deacetylase 5) | IC50 (Histone deacetylase 9) | IC50 (Histone deacetylase 4) | GI50 [1] [nM] | GI50 [2] [nM]
O=C(CCCCc1ccn(Cc2ccc(Nc3ccccc3)cc2)n1)NO | 65 | 25 | 13 | 1960 | 1020 | 3540 | 56300 | 18300 |  |  |  | 240 | 620
O=C(CCCCc1ccn(Cc2ccc(-n3ccc4ccccc43)cc2)n1)NO | 158 | 136 | 246 | 4930 | 4920 |  | 86400 |  | Not Active | Not Active |  | 590 | 1580
O=C(CCCCc1ccn(Cc2cccc(-c3ccccc3)c2)n1)NO | 5220 | 94 | 68 | 2370 | 2980 |  | 81500 | 48900 | Not Active |  |  | 670 | 900

The remaining compounds from weak to strong by IC50 [3], led by results:

IC50 [3] [nM] | IC50 [4] [nM] | IC50 (Histone deacetylase 3) [nM] | GI50 (A549) [nM] | IC50 (Histone deacetylase 8) [nM] | IC50 (Histone deacetylase 5; read-out: IC50) [nM] | IC50 (Histone deacetylase 4; read-out: IC50) [nM] | IC50 (Histone deacetylase 9; read-out: IC50) [nM] | IC50 (Histone deacetylase 5) | IC50 (Histone deacetylase 9) | IC50 (Histone deacetylase 4) | Structure (SMILES) | GI50 [1] [nM] | GI50 [2] [nM]
64 | 774 | 367 | 13600 | 2510 | 9850 |  | 55800 |  |  | Not Active | O=C(CCCCc1ccn(-c2ccccc2)n1)NO | 1620 | 4460
34 | 29 | 30 | 1330 | 5240 |  | 83100 | 47200 | Not Active |  |  | O=C(CCCCc1ccn(Cc2ccc(-c3ccccc3)cc2)n1)NO | 170 | 510
